Results published in US10231907B2, “Compositions for improving the health and appearance of skin” (Algenist Holdings, Inc., priority 2006, dated 2019).

How the values were obtained:
elastase = test: Anti-elastase assay (fibroblast lysate, STANA substrate); type: biochemical, human; conditions: 100 μM
Protocol: Human dermal fibroblasts were cultured and used as a source of the elastase enzyme. This enzyme was be partially purified from the fibroblasts by lysing the cells in an elastase buffer and retaining the soluble portion of the lysate. Portions of this fibroblast lysate were then be incubated with test materials a synthetic elastase substrate, Suc-(Ala3)-p-Nitroaniline (STANA). Elastase acts upon this substrate to release p-nitroaniline, which is detected with a spectrophotometer by measuring the absorbance at a wavelength of 405 nm. An inhibition of the elastase enzyme is identified by a decrease in the amount of released p-nitroaniline when compared to uninhibited enzyme.
Test material BM was supplied as a powder. 100 mg of BM was combined with either 5 ml of ethanol or 5 ml of ultrapure water in 15 ml centrifuge tubes. […]
After measuring the protein concentration of the lysate, a small sample was obtained and the elastase activity of the lysate was determined at 100%, 50% and 25% concentrations using 2× elastase buffer to make the dilutions. […] After the incubation the well plate was read at 405 nm using a microplate reader. The mean absorbance for each concentration of the lysate was plotted versus its respective concentration. […]

human PMN leukocytes = test: PMN migration (chemotaxis chamber, FMLP); type: cell-based; conditions: 2 ug/ml, mean ± SD
Protocol: Microalgal polysaccharide materials were tested for their ability to influence the migration of polymorphonucelar (PMN) leukocytes in response to chemotractant substances. Leukocyte migration is essential for leukocyte accumulation at sites of inflammation. During the inflammatory response, leukocytes migrate towards the source of a chemotractant substance in a process called chemotaxis. In vitro methods to study chemotaxis often use a membrane based approach, where a chemoattractant is placed on one side of a membrane and PMN leukocytes are placed on the other. Chemotaxis is then measured by quantifying the number of leukocytes which then migrate through the filter towards the chemotractant substance.
For this study, human PMN leukocytes were isolated via density centrifugation from freshly drawn blood. The PMN cells were loaded with a Calcein AM, a fluorescent dye. […] The chemotaxis chamber was be incubated and at the end of the incubation period the fluorescence of the bottom wells was read and used as an index of PMN migration. […]
Heparinized whole blood (20-30 ml) was collected from a healthy human donor, layered over a density gradient (Histopaque 1077 and Histopaque 1119) and centrifuged at 400 g for 30 min. […] After the incubation, the PMN cells were washed twice with PBS, counted and resuspended in RPMI-FCS at 1-5×10^6 cells/ml. […]

Row | SMILES | Percent Inhibition (elastase) | Percent of Maximal Migration (human PMN leukocytes)
1 | CC(C)C[C@H](NP(=O)(O)O[C@@H]1O[C@@H](C)[C@H](O)[C@@H](O)[C@H]1O)C(=O)N[C@@H](Cc1c[nH]c2ccccc12)C(=O)O [Phosphoramidon] | 94% | 
2 | C[C@@H]1[C@H](O)[C@@H](C)/C=C/C=C/C=C/C=C/C=C/C=C/C=C/[C@H](O[C@@H]2O[C@H](C)[C@@H](O)[C@H](N)[C@@H]2O)C[C@@H]2O[C@](O)(C[C@@H](O)C[C@@H](O)[C@H](O)CC[C@@H](O)C[C@@H](O)CC(=O)O[C@H]1C)C[C@H](O)[C@H]2C(=O)O [Amphotericin B] |  | 9.4 ± 0.6%
